In paper PMC7698842, “Lanostane Triterpenoid Metabolites from a Penares sp. Marine Sponge Protect Neuro-2a Cells against Paraquat Neurotoxicity” (Molecules, 2020):

Key:
[1] = system: PQ-treated Neuro-2a cells; test: Neurite outgrowth estimation in PQ-treated Neuro-2a cells; assay type: cell-based, mouse; conditions: for increase in the average number of neurites per cell / increase of neurites-bearing cell amount compared to PQ-treated control: compound 10 µM 1 h, then PQ 500 µM 24 h
Method: Neurite outgrowth was studied as described by Li et al.. Neuro-2a cells were seeded in 6-well plates (1.6 × 10^5 cells/well) in DMEM medium containing 10% fetal bovine serum (Biolot, St. Peterburg, Russia) and 1% penicillin/streptomycin (Invitrogen, Carlsbad, CA, USA). The next day, this growth media was changed with serum-free DMEM media containing 1% penicillin/streptomycin, and cells were treated with studied compounds at a concentration of 10 µM for 1 h. After that, PQ (500 µM) was added and cells were incubated during 24 h. Cells incubated without PQ and compounds and with PQ alone were used as positive and negative controls, respectively.
For each well, approximately 10 images were acquired randomly by scanning the wells from left to right and top to bottom using the AxioImager A1 microscope (CarlZeiss, Oberkochen, Germany). A total of ten random fields (near 350 cells in each) for each experimental group were scored for neurite outgrowth. The number of neurite-bearing cells and lengths of the individual neurites for each cell were measured using the AxioVision 4.7.1 software (CarlZeiss, Oberkochen, Germany). Length was defined as the straight-line distance from the tip of the neurite to the junction between the cell body and neurite base. In the case of branched neurites, the length of the longest branch was measured from the tip of the neurite to the cell body. In each experimental group, the average length of neurites was calculated, as well as the average number of neurites per one cell.

[2] = system: PQ-treated Neuro-2a cells; test: PQ-treated Neuro-2a cell viability (MTT assay); assay type: cell-based, mouse; conditions: 24 h; for effect on PQ-treated cell viability (MTT assay): compound 1 and 10 µM, PQ 500 µM
Method: (§1) The cells (1 × 10^4 cells/well of a 96-well plate) were incubated with different concentrations of studied compounds during 24 h. After that, cell viability was determined by the MTT (3-(4,5-dimethylthiazol-2-yl)-2,5-diphenyltetrazolium bromide) method according to the manufacturer’s instructions (Sigma-Aldrich, St. Louis, MO, USA). Absorbance of the converted formazan was measured using a Multiskan FC microplate photometer (Thermo Scientific, Waltham, MA, USA) at λ = 570 nm. The results were presented as percent of control data, and concentration of cell viability inhibition on 50% (IC50) was calculated.
(§2) The cells (1 × 10^4 cells/well of a 96-well plate) were treated with studied compounds at concentrations of 1 and 10 µM for 1 h and then 500 µM of PQ (Sigma-Aldrich, St. Louis, MO, USA) was added to the neuroblastoma cells. Cells incubated without PQ and compounds and with PQ alone were used as positive and negative controls, respectively. The viability of cells was measured after 24 h using MTT and FDA methods. The results were presented as percent of positive control data.

[3] = Cytotoxicity toward Neuro-2a cells (MTT assay); assay type: cell-based, mouse; conditions: mouse, Neuro-2a neuroblastoma cells, 24 h; for activity at 24 h, 10 µM: Neuro-2a cell viability, read-out: Cytotoxicity (MTT Assay) % of Control at 10 μM; for IC50 at 24 h: Neuro-2a cells
Method: (§3) The cells of mouse neuroblastoma cell line Neuro-2a (ATCC® CCL-131™; American Type Culture Collection, Manassas, VA, USA) were cultured in Dulbecco’s modified Eagle’s medium (DMEM) containing 10% fetal bovine serum (Biolot, St. Petersburg, Russia) and 1% penicillin/streptomycin (Biolot, St. Petersburg, Russia) at 37 °C in a humidified atmosphere with 5% (v/v) CO2. Initially, cells were incubated in cultural flasks until sub-confluent (~80%). For testing, Neuro-2a cells were seeded in 96- or 6-well plates and experiments were started after 24 h.
as §1

[4] = system: ROS level in PQ-treated Neuro-2a cells; test: ROS level analysis in PQ-treated Neuro-2a cells (H2DCFDA); assay type: cell-based, mouse; conditions: for concentrations at which ROS content in PQ-treated cells was reduced: tested at 1 and 10 μM
Method: The cells (1 × 10^4 cells/well of a 96-well plate) were incubated with compound solutions (1 and 10 µM) during 1 h. Then, PQ was added to cell suspension to a resulting concentration of 500 µM for incubation during 1 h. Cells incubated without PQ and compounds and with PQ alone were used as positive and negative controls, respectively. The 20 µL of 2,7-dichlorodihydrofluorescein diacetate solution (H2DCFDA, Molecular Probes, Eugene, OR, USA) was added to each well (10 µM, final concentration) and the plate was incubated for an additional 10 min at 37 °C. The intensity of dichlorofluorescin fluorescence was measured with a PHERAstar FS plate reader (BMG Labtech, Ortenberg, Germany) at λex = 485 nm and λem = 518 nm. The data were processed by MARS Data Analysis v. 3.01R2 (BMG Labtech, Ortenberg, Germany). The results were presented as percent of positive control data.

[5] = DPPH radical scavenging assay (cell-free); conditions: 30 min, MeOH
Method: The 2,2-diphenyl-1-picryl-hydrazyl-hydrate (DPPH) radical scavenging activity was tested as described previously. The compounds were dissolved in MeOH, and the solutions (120 µL) were dispensed into wells of a 96-well microplate. The DPPH (Sigma-Aldrich, Steinheim, Germany) was dissolved in MeOH at a concentration of 7.5 × 10^−3 M and the solution (30 µL) was added to each well. The concentrations of tested compounds in the mixtures were 10 and 100 µM. Ascorbic acid was used as a positive control. The mixtures were shaken and left for 30 min. The absorbance of the resulting solutions was measured at λ = 520 nm with a MultiscanFC plate reader (Thermo Scientific, Waltham, MA, USA). The concentration scavenging 50% of the DPPH radical (EC50) was calculated for each compound.

[6] = system: PQ-treated Neuro-2a cells; test: Propidium iodide straining of PQ-treated Neuro-2a cells (membrane permeability); assay type: cell-based, mouse; conditions: 24 h; for decrease of fluorescence of PI-straining cells: PQ-treated cells
Method: The cells (1 × 10^4 cells/well) were seeded in black 96-well plates before testing. After incubation of the cells with compounds and PQ during 24 h, PI solution (10 μg/mL) was added to each well and the plate was incubated in the dark at 37 °C for 10 min. Cells were washed with phosphate buffer saline (PBS) (BioloT, St.Peterburg, Russia) and fluorescence was measured with a Fluoroskan Ascent plate reader (Thermo Labsystems, Helsinki, Finland) at […]. All manipulations with fluorescent probes were carried out in a darkened room. The results were presented as percent of positive control data.

[7] = system: Hsp70 level in Neuro-2a cells; test: Hsp70 level analysis by Western blot in Neuro-2a cells; assay type: cell-based, mouse
Method: The Hsp70 expression was detected by Western blot analysis. Cell suspensions (1.6 × 10^5 cells/well of a 6-well plate) were seeded and treated with studied compounds at a concentration of 10 µM for 1 h. After that, PQ (500 µM) was added and cells were incubated during 24 h. Cells incubated without PQ and compounds and with PQ alone were used as positive and negative controls, respectively. Cells were washed by cold PBS (BioloT, Russia) twice and lysed by radioimmunoprecipitation assay (RIPA) buffer (BioloT, St. Peterburg, Russia). The amount of proteins was measured by the Bradford method and equal samples (25 µg) were prepared using sample buffer. Proteins were separated with sodium dodecyl sulphate (SDS) electrophoresis in 10% polyacrylamide gel. The electrophoretically separated proteins were transferred onto the polyvinylidene difluoride (PVDF) membrane Whatman (Sigma-Aldrich, St. Louis, MO, USA) using a semi-dry transfer apparatus (Helicon, Moscow, Russia). […] The peroxidase reaction was visualized by an enhanced chemiluminescence (ECL) kit according to the instructions of the manufacturer (Sigma-Aldrich, St. Louis, MO, USA) using the VersaDoc Imaging System (Bio-Rad, Hercules, CA, USA).

[8] = system: histamine release induced by anti-IgE; conditions: cited from earlier work
[9] = system: mitochondrial membrane potential in PQ-treated Neuro-2a cells; test: Mitochondrial membrane potential detection (TMRM) in PQ-treated Neuro-2a cells; assay type: cell-based, mouse; conditions: for increase of intensity of TMRM fluorescence (PQ-induced mitochondrial dysfunction diminished): compound 10 μM, PQ 500 µM 1 h
Method: The cells (1 × 10^4 cells/well of a 96-well plate) were incubated with compound solutions (1 and 10 µM) during 1 h. Then, PQ was added to cell suspension to a resulting concentration of 500 µM for incubation during 1 h. Cells incubated without PQ and compounds and with PQ alone were used as positive and negative controls, respectively. The tetramethylrhodamine methyl (TMRM) (Sigma-Aldrich, St. Louis, MO, USA) solution at 500 nM was added in each well and cells were incubated for 30 min at 37 °C. The intensity of fluorescence was measured with a PHERAstar FS plate reader (BMG Labtech, Ortenberg, Germany) at λex = 540 nm and λem = 590 nm. The data were processed by MARS Data Analysis v. 3.01R2 (BMG Labtech, Ortenberg, Germany). The results were presented as percent of positive control data.

[10] = system: Neuro-2a cells; test: Cytotoxicity toward Neuro-2a cells (MTT assay); assay type: cell-based, mouse; conditions: Neuro-2a cells, 100 μM, MTT assay
Method: as §3, §1

[11] = system: PQ-treated Neuro-2a cells; test: PQ-treated Neuro-2a cell viability (FDA assay); assay type: cell-based, mouse; conditions: 24 h
Method: A stock solution of the fluorescein diacetate (FDA) (Sigma-Aldrich, St. Louis, MO, USA) in DMSO (1 mg/mL) was prepared. The cells (1 × 10^4 cells/well) were seeded in black 96-well plates before testing. After incubation of the cells with compounds and PQ during 24 h, FDA solution (50 μg/mL) was added to each well and the plate was incubated in the dark at 37 °C for 15 min. Cells were washed with phosphate buffer saline (PBS) (BioloT, S.-Peterburg, Russia) and fluorescence was measured with a Fluoroskan Ascent plate reader (Thermo Labsystems, Helsinki, Finland) at λex = 485 nm and λem = 518 nm. All manipulations with fluorescent probes were carried out in a darkened room. Cell viability was expressed as the percent of control.
as §2

[12] = compound 10 µM 1 h, then PQ 500 µM 24 h
[13] = cells incubated with compound 10 µM and PQ 500 µM
[14] = PQ-treated cells (PQ alone 500 µM)

Molecule	increase in the average number of neurites per cell [1]	effect on PQ-treated cell viability (MTT assay) [2]	activity at 24 h, 10 µM [3]	IC50 at 24 h [3]	concentrations at which ROS content in PQ-treated cells was reduced ([4]; PQ 500 µM 1 h)	EC50 [5]	decrease of fluorescence of PI-straining cells ([6]; compound 10 μM pre-incubation)	increase of Hsp70 level in PQ-treated cells [7, 12]	increase of neurites-bearing cell amount compared to PQ-treated control [1]	increase of intensity of TMRM fluorescence (PQ-induced mitochondrial dysfunction diminished) [9]	death of cells [10]	further results
CC(C)=CCC[C@@H](C)[C@H]1CC[C@]23C(=O)O[C@]4(CC[C@]12C)[C@]31O[C@H]1C[C@H]1C(C)(C)[C@@H](O)CC[C@@]14C [Compound 2, 3β-hydroxy-7β,8β-epoxy-5α-lanost-24-en-30,9α-olide]	12%	did not show any effect	96.9 ± 1.1%	> 100 µM	reduced ROS content only at a concentration of 10 μM	> 100 µM	12%	43%	–	–	–	–
CC(=O)O[C@H]1CC[C@]2(C)C3=C(CC[C@H]2C1(C)C)[C@]1(C(=O)O)CC[C@H]([C@H](C)CCC=C(C)C)[C@@]1(C)CC3 [Compound 5, acetylpenasterol]	20%	–	97.9 ± 3.3%	> 100 µM	effective at concentrations of 1 and 10 μM	> 100 µM	24%	–	144%	35%	45.6%	inhibition of histamine release induced by anti-IgE [8]: inhibitors of histamine release; proportion of neurites with a length of 0–4.99 µm in the total number [1, 13]: 6.4%; proportion of neurites with a length of 10.00–14.99 µm in the total number [1, 13]: 20.7%; decrease of fluorescence of PI-straining cells ([6]; compound 1 μM pre-incubation): 20%; effect on Hsp70 level in PQ-treated cells [7, 12]: raised it to the initial level
CC(=O)O[C@H]1CC[C@@]2(C)[C@@H](C[C@@H]3O[C@]34[C@]23CC[C@]2(C)[C@@H]([C@H](C)CCC=C(C)C)CC[C@@]42C(=O)O3)C1(C)C [Compound 1, 3β-acetoxy-7β,8β-epoxy-5α-lanost-24-en-30,9α-olide]	16%	–	92.1 ± 7.1%	85.7 ± 2.4 µM	–	> 100 µM	16%	62%	–	37%	–	effect on the number of neurite-bearing PQ-treated cells ([1]; compound 10 µM, PQ 500 µM): did not show a statistical effect; effect on ROS level in PQ-treated cells ([4]; compound 1 and 10 µM, 1 h pre-treatment, PQ 500 µM 1 h): did not affect ROS level
CC(C)=CCC[C@@H](C)[C@H]1CC[C@@]2(C(=O)O)C3=C(CC[C@]12C)[C@@]1(C)CCC(=O)[C@@H](C)[C@@H]1CC3 [Compound 3, 29-nor-penasterone]	17%	did not show any effect	91.1 ± 4.1%	> 100 µM	reduced ROS content only at a concentration of 10 μM	> 100 µM	–	26%	113%	–	37.4%	effect on PQ-treated cell viability (FDA assay) ([11]; compound 1 and 10 µM, PQ 500 µM): did not show any effect
N,N-dimethyl-4,4-bipyridinium dichloride [PQ, reference compound]	–	–	–	–	–	–	–	–	–	–	–	average length of neurites, less than control value by ([1]; PQ alone 500 µM, 24 h): 29%; number of neurites per cell, less than control value by ([1]; PQ alone 500 µM, 24 h): 14%; cells with neurites ([1]; PQ alone 500 µM, 24 h, control 30%): 10%; proportion of neurites with a length of 0–4.99 µm in the total number [1, 14]: 11.1%; proportion of neurites with a length of 10.00–14.99 µm in the total number [1, 14]: 16.6%; PQ-treated cell viability, % of control cells (MTT assay) ([2]; PQ alone 500 µM): 45.4%; decrease of TMRM fluorescence ([9]; PQ alone, 1 h exposition): 30%; increase of ROS level compared to control cells ([4]; PQ alone 500 µM, within 1 h): 40%; PQ-treated cell viability, % of control cells (FDA assay) ([11]; PQ alone 500 µM): 62.2%; increase in the number of PI-straining cells ([6]; PQ alone, versus control): 35%; change of Hsp70 level in comparison with control cells ([7]; PQ alone 500 µM, 24 h): half-decrease
